Experimental data published in PubChem BioAssay (NCI).
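Growth conditions: 96-well plates. Treatment: test compound, 48 hours, 5 concentrations. Analysis: linear interpolation between bracketing concentrations; unreached endpoints set to highest concentration. The concentration for full growth arrest is given as TGI.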

Key:
Experiment in all cases: growth of human tumour cells (NCI), 48 h
A549 NSCLC = test system: A549 NSCLC
BT-549 breast = test system: BT-549 breast
HOP-92 NSCLC = test system: HOP-92 NSCLC
HT29 colon = test system: HT29 colon
M14 melanoma = test system: M14 melanoma
MDA-MB-231 breast = test system: MDA-MB-231 breast
MDA-N = test system: MDA-N
MOLT-4 leukemia = test system: MOLT-4 leukemia
NCI-H226 lung = test system: NCI-H226 lung
OVCAR-8 ovarian = test system: OVCAR-8 ovarian
SK-MEL-28 melanoma = test system: SK-MEL-28 melanoma
SW-620 colon = test system: SW-620 colon
U251 CNS = test system: U251 CNS

| Structure (SMILES) | TGI (A549 NSCLC) | TGI (BT-549 breast) | TGI (HOP-92 NSCLC) | TGI (HT29 colon) | TGI (M14 melanoma) | TGI (MDA-MB-231 breast) | TGI (MDA-N) | TGI (MOLT-4 leukemia) | TGI (NCI-H226 lung) | TGI (OVCAR-8 ovarian) | TGI (SK-MEL-28 melanoma) | TGI (SW-620 colon) | TGI (U251 CNS) |
| --- | --- | --- | --- | --- | --- | --- | --- | --- | --- | --- | --- | --- | --- |
| Clc1cc(Cl)cc(C2ON=C(c3ccccc3)N2C23CC4CC(CC(C4)C2)C3)c1 (stereo not given) | > 10 µM | > 10 µM | > 10 µM | > 10 µM | > 10 µM | > 10 µM | > 10 µM | > 10 µM | > 10 µM | > 10 µM | > 10 µM | > 10 µM | > 10 µM |
| Cc1ccc(Nc2c(C#N)[n+]([O-])c3cc(Cl)ccc3[n+]2[O-])cc1 | > 100 µM | > 100 µM | > 100 µM | > 61.1 µM | > 100 µM | > 100 µM | > 100 µM | > 100 µM | > 100 µM | > 100 µM | > 100 µM | > 100 µM | > 100 µM |
| O=c1oc2ccccc2c(O)c1/C=N/C(=S)NCCc1ccccc1 | > 100 µM | > 84.7 µM | > 74.7 µM | > 100 µM | > 100 µM | > 100 µM | > 100 µM | > 100 µM | > 100 µM | > 100 µM | > 100 µM | > 100 µM | > 100 µM |
| CCOC(=O)c1cnc2n(c1=N)[C@H]1CCCC[C@@H]1N2 | > 100 µM | > 100 µM | > 100 µM | > 100 µM | > 100 µM | > 100 µM | > 100 µM | > 100 µM | > 100 µM | > 100 µM | > 100 µM | > 100 µM | > 100 µM |
| CCN(CC)c1ccc2cc(C(=O)Nc3ccccc3)c(=N)oc2c1 | > 100 µM | > 100 µM | > 100 µM | > 100 µM | > 100 µM | > 100 µM | > 100 µM | > 100 µM | > 100 µM | > 100 µM | > 100 µM | > 100 µM | > 100 µM |
| Cc1nc2c(=O)n(-c3ccccc3)c3ccccc3c2o1 | > 100 µM | > 100 µM | > 100 µM | > 100 µM | > 100 µM | > 100 µM | > 100 µM | > 100 µM | > 100 µM | > 100 µM | > 100 µM | > 100 µM | > 100 µM |
| Cc1nc(N/N=C/c2ccccc2Cl)[nH]c(=O)c1CCO | > 100 µM | > 100 µM | 57.3 µM | > 100 µM | > 100 µM | > 100 µM | > 100 µM | > 100 µM | > 100 µM | 51.7 µM | > 100 µM | > 100 µM | > 100 µM |
| O=C(c1ccccc1)c1ccc(-n2c3ccccc3c3ccc4c(c32)C(=O)C=CC4=O)cc1 | 36.4 µM | 38.5 µM | 18.6 µM | 8.35 µM | 23.6 µM | 26.2 µM | 40.6 µM | > 35.4 µM | 53.8 µM | 27.2 µM | 30.1 µM | 30.1 µM | 30.4 µM |
| CCOc1ccc(N/C(Cl)=C(Cl)\C(=C(\Nc2ccc(OCC)cc2)n2nnc3ccccc32)[N+](=O)[O-])cc1 | 66.8 µM | 14 µM | 5.56 µM | 3.46 µM | 17.3 µM | 15.6 µM | 13.2 µM | > 100 µM | 60.5 µM | 3.46 µM | 20.9 µM | 5.71 µM | 22 µM |
| NCCN1C(=O)CN=C(c2ccc(Cl)cc2)c2cc(Cl)ccc21 | 32.2 µM | 30.3 µM | 39.7 µM | 36 µM | 30.3 µM | 30.5 µM | 31.4 µM | 73.8 µM | 31 µM | 32.2 µM | > 100 µM | 43 µM | 31.5 µM |
